Measurements: ChEMBL document CHEMBL4680147, “Discovery of 6'-chloro-N-methyl-5'-(phenylsulfonamido)-[3,3'-bipyridine]-5-carboxamide (CHMFL-PI4K-127) as a novel Plasmodium falciparum PI(4)K inhibitor with potent antimalarial activity against both blood and liver stages of Plasmodium” (Eur J Med Chem, 2020)
pEC50, pIC50: −log10 of the molar value. Activity calls are given as the source filed them. No cut-off for these calls is given here.

Assays:
Plasmodium falciparum [1] = assay: Antimalarial activity against pyrimethamine/chloroquine resistant Plasmodium falciparum C2A infected in human O+ erythrocytes incubated for 72 hrs by SYBR Green 1 dye based fluorescence assay; format: functional, organism-based; conditions: Erythrocyte
[2] = target: Phosphatidylinositol 4,5-bisphosphate 3-kinase catalytic subunit alpha isoform (Homo sapiens, UniProt P42336); assay: Inhibition of human PI3Kalpha by ADP-Glo kinase assay
[3] = target: Phosphatidylinositol 4,5-bisphosphate 3-kinase catalytic subunit gamma isoform (Homo sapiens, UniProt P48736); assay: Inhibition of human PI3Kgamma by ADP-Glo kinase assay
[4] = target: Phosphatidylinositol 4-phosphate 3-kinase C2 domain-containing subunit beta (Homo sapiens, UniProt O00750); assay: Inhibition of human PIK3C2beta by ADP-Glo kinase assay
[5] = Selectivity index, ratio of IC50 for human PI4K3alpha to IC50 for recombinant His-tagged Plasmodium falciparum 3D7 PI4K expressed in baculovirus infected Sf9 cells
Plasmodium falciparum [6] = assay: Antimalarial activity against blood stage Plasmodium falciparum harboring PI4K Y1342I mutant infected in human O+ erythrocytes incubated for 72 hrs by SYBR Green 1 dye based fluorescence assay; format: functional, organism-based; conditions: Erythrocyte
[7] = Selectivity index, ratio of EC50 for antimalarial activity against wild type Plasmodium falciparum infected in human O+ erythrocytes to EC50 for antimalarial activity against Plasmodium falciparum harboring PI4K Y1342I mutant infected in human O+ erythrocytes; format: functional, Erythrocyte
[8] = target: Phosphatidylinositol 4-kinase alpha (Homo sapiens, UniProt P42356); assay: Inhibition of human PI4K3alpha by ADP-Glo kinase assay
Plasmodium yoelii [9] = assay: Antimalarial activity against blood stage Plasmodium yoelii infected in BALB/c mouse assessed as suppression of parasitemia at 60 mg/kg/day, po administered for 7 consecutive days starting from 1 day post-infection and observed for 20 days by Giemsa-staining based microscopic analysis; format: functional, organism-based; conditions: time 20.0 day
[10] = Apparent clearance in Sprague-Dawley rat at 10 mg/kg, po; format: ADME, organism-based; conditions: in vivo, read-out: CL(app) (converted)
[11] = Inhibition of recombinant His-tagged Plasmodium falciparum 3D7 PI4K expressed in baculovirus infected Sf9 cells using PI:PS as substrate incubated for 1 hr in presence of ATP by ADP-Glo kinase assay
[12] = Apparent volume of distribution in mouse at 10 mg/kg, po; format: ADME, organism-based; conditions: in vivo
Plasmodium falciparum [13] = assay: Antimalarial activity against artemisinin and piperaquine-phosphate resistant Plasmodium falciparum 6320 infected in human O+ erythrocytes incubated for 72 hrs by SYBR Green 1 dye based fluorescence assay; format: functional, organism-based; conditions: Plasmodium falciparum, 6320, Erythrocyte
[14] = Apparent clearance in Sprague-Dawley rat at 1 mg/kg, iv; format: ADME, organism-based; conditions: in vivo, read-out: CL(app) (converted)
[15] = Mean residence time (0 to t) in mouse at 10 mg/kg, po; format: ADME, organism-based; conditions: in vivo
[16] = Cmax in Sprague-Dawley rat at 10 mg/kg, po; format: ADME, organism-based; design: route oral, dose 10 mg/kg; conditions: in vivo
Plasmodium yoelii [17] = assay: Antimalarial activity against blood stage Plasmodium yoelii infected in BALB/c mouse assessed as suppression of parasitemia at 80 mg/kg/day, po administered for 7 consecutive days starting from 1 day post-infection and observed for 20 days by Giemsa-staining based microscopic analysis; format: functional; conditions: time 20 day
[18] = Cmax in mouse at 1 mg/kg, iv; format: ADME, organism-based; design: route intravenous, dose 1 mg/kg; conditions: in vivo
Plasmodium falciparum [19] = assay: Antimalarial activity against pyrimethamine/chloroquine resistant Plasmodium falciparum PC26 infected in human O+ erythrocytes incubated for 72 hrs by SYBR Green 1 dye based fluorescence assay; format: functional, organism-based; conditions: PC26, Erythrocyte
[20] = AUC(0 to infinity) in mouse at 10 mg/kg, po; format: ADME, organism-based; design: route oral, time infinity, dose 10 mg/kg; conditions: in vivo
[21] = Half life in mouse at 10 mg/kg, po; format: ADME, organism-based; conditions: in vivo
Plasmodium falciparum [22] = assay: Antimalarial activity against mefloquine/chloroquine/pyrimethamine resistant Plasmodium falciparum Dd2 infected in human O+ erythrocytes incubated for 72 hrs by SYBR Green 1 dye based fluorescence assay; format: functional, organism-based; conditions: Dd2, Erythrocyte
[23] = Cmax in Sprague-Dawley rat at 1 mg/kg, iv; format: ADME, organism-based; design: route intravenous, dose 1 mg/kg; conditions: in vivo
[24] = Cmax in mouse at 10 mg/kg, po; format: ADME, organism-based; design: route oral, dose 10 mg/kg; conditions: in vivo
[25] = Tmax in Sprague-Dawley rat at 1 mg/kg, iv; format: ADME, organism-based; conditions: in vivo
Plasmodium yoelii [26] = assay: Antimalarial activity against blood stage Plasmodium yoelii infected in BALB/c mouse assessed as suppression of parasitemia administered once daily via oral gavage for 7 consecutive days starting from 1 day post-infection and observed for 20 days by Giemsa-staining based microscopic analysis; format: functional, organism-based; conditions: dose 60-80 mg/kg/day, time 20.0 day
[27] = Inhibition of human PIK3C2alpha by ADP-Glo kinase assay
Plasmodium falciparum [28] = assay: Antimalarial activity against chloroquine resistant Plasmodium falciparum FAB9 infected in human O+ erythrocytes incubated for 72 hrs by SYBR Green 1 dye based fluorescence assay; format: functional, organism-based; conditions: FAB9, Erythrocyte
[29] = target: Phosphatidylinositol 4-kinase beta (Homo sapiens, UniProt Q9UBF8); assay: Inhibition of human PI4K3beta by ADP-Glo kinase assay
Plasmodium falciparum [30] = assay: Antimalarial activity against pyrimethamine/chloroquine resistant Plasmodium falciparum CP286 infected in human O+ erythrocytes incubated for 72 hrs by SYBR Green 1 dye based fluorescence assay; format: functional, organism-based; conditions: CP286, Erythrocyte
[31] = target: Phosphatidylinositol 4,5-bisphosphate 3-kinase catalytic subunit beta isoform (Homo sapiens, UniProt P42338); assay: Inhibition of human PI3Kbeta by ADP-Glo kinase assay
[32] = Mean residence time (0 to t) in Sprague-Dawley rat at 1 mg/kg, iv; format: ADME, organism-based; conditions: in vivo
[33] = Selectivity index, ratio of IC50 for human PI3Kgamma to IC50 for recombinant His-tagged Plasmodium falciparum 3D7 PI4K expressed in baculovirus infected Sf9 cells
[34] = Oral bioavailability in Sprague-Dawley rat at 10 mg/kg; format: ADME, organism-based; conditions: in vivo
[35] = AUC(0 to infinity) in Sprague-Dawley rat at 1 mg/kg, iv; format: ADME, organism-based; design: time infinity, route intravenous, dose 1 mg/kg; conditions: in vivo
[36] = target: Phosphatidylinositol 3-kinase catalytic subunit type 3 (Homo sapiens, UniProt Q8NEB9); assay: Inhibition of human VPS34 by ADP-Glo kinase assay
[37] = AUC(0 to infinity) in mouse at 1 mg/kg, iv; format: ADME, organism-based; design: time infinity, route intravenous, dose 1 mg/kg; conditions: in vivo
[38] = Apparent clearance in mouse at 1 mg/kg, iv; format: ADME, organism-based; conditions: in vivo, read-out: CL(app) (converted)
[39] = Oral bioavailability in mouse at 10 mg/kg; format: ADME, organism-based; conditions: in vivo
[40] = Apparent volume of distribution in Sprague-Dawley rat at 1 mg/kg, iv; format: ADME, organism-based; conditions: in vivo, read-out: Vz
[41] = Selectivity index, ratio of IC50 for human VPS34 to IC50 for recombinant His-tagged Plasmodium falciparum 3D7 PI4K expressed in baculovirus infected Sf9 cells
Plasmodium berghei = assay: Antimalarial activity against liver stage luciferase-expressing Plasmodium berghei sporozoites infected in BALB/c mouse assessed as suppression of parasitemia at 1 mg/kg, po treated for 2 hrs followed by parasite infection and measured upto 196 hrs post-infection by luciferase based in vivo real-time imaging analysis; format: functional; conditions: time 198 hrs
[42] = Selectivity index, ratio of IC50 for human PI4K3beta to IC50 for recombinant His-tagged Plasmodium falciparum 3D7 PI4K expressed in baculovirus infected Sf9 cells
Plasmodium falciparum [43] = assay: Antimalarial activity against Plasmodium falciparum GB4 infected in human O+ erythrocytes incubated for 72 hrs by SYBR Green 1 dye based fluorescence assay; format: functional, organism-based; conditions: GB4, Erythrocyte

Phosphatidylinositol 4-kinase alpha, sequence (P42356 whole entry): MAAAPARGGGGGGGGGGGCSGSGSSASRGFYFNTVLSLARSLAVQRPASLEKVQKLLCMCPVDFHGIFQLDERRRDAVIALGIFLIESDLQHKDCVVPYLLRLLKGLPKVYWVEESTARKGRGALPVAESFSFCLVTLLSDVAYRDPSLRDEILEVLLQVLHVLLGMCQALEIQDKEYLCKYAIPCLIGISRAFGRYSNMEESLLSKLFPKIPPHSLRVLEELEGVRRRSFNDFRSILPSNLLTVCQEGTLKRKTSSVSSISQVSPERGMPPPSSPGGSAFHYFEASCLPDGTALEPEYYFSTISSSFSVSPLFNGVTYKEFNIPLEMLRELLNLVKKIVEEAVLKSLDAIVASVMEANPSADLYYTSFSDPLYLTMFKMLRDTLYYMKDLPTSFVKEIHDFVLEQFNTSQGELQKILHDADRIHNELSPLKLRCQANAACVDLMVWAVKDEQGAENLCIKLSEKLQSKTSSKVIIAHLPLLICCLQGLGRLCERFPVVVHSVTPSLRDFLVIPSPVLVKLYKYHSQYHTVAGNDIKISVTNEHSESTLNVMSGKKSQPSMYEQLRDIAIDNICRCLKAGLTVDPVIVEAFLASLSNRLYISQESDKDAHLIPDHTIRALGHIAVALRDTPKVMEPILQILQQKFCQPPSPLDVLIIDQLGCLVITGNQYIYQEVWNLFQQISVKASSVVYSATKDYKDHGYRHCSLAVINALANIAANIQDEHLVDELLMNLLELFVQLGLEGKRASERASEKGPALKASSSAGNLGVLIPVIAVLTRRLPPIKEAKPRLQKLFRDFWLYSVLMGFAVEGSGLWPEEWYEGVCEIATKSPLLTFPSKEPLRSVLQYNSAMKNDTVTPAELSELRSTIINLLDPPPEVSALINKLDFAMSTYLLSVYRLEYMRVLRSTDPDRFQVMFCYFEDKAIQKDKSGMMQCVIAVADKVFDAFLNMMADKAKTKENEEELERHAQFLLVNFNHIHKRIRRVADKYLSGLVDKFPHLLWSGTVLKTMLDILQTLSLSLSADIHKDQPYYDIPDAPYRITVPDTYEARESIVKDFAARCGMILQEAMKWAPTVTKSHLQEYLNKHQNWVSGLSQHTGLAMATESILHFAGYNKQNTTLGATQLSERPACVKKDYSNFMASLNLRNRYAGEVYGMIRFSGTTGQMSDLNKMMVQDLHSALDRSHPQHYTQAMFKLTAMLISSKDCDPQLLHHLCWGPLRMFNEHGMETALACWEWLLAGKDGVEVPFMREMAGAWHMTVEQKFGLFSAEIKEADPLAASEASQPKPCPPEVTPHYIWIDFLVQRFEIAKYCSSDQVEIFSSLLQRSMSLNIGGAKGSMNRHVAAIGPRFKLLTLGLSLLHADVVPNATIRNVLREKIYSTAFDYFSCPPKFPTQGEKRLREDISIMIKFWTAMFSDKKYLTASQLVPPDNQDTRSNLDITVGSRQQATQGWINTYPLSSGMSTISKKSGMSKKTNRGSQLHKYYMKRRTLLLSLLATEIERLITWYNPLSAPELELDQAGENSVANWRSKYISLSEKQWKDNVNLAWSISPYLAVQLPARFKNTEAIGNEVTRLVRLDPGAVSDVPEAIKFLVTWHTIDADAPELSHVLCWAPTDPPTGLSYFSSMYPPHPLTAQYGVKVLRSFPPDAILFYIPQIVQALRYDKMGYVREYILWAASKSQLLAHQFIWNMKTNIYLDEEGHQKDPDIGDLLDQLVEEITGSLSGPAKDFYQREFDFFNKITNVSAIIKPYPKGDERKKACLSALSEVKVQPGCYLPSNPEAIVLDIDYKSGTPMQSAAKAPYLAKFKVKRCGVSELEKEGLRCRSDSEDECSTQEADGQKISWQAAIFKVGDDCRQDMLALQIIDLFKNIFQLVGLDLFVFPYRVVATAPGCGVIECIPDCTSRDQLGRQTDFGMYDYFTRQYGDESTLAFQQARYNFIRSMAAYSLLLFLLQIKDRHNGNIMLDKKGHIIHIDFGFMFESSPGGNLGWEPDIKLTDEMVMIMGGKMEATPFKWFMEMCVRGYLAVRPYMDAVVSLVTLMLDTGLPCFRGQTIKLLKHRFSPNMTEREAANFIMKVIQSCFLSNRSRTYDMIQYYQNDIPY
Phosphatidylinositol 4,5-bisphosphate 3-kinase catalytic subunit gamma isoform, sequence (P48736 whole entry, the tested form may be a part, canonical isoform): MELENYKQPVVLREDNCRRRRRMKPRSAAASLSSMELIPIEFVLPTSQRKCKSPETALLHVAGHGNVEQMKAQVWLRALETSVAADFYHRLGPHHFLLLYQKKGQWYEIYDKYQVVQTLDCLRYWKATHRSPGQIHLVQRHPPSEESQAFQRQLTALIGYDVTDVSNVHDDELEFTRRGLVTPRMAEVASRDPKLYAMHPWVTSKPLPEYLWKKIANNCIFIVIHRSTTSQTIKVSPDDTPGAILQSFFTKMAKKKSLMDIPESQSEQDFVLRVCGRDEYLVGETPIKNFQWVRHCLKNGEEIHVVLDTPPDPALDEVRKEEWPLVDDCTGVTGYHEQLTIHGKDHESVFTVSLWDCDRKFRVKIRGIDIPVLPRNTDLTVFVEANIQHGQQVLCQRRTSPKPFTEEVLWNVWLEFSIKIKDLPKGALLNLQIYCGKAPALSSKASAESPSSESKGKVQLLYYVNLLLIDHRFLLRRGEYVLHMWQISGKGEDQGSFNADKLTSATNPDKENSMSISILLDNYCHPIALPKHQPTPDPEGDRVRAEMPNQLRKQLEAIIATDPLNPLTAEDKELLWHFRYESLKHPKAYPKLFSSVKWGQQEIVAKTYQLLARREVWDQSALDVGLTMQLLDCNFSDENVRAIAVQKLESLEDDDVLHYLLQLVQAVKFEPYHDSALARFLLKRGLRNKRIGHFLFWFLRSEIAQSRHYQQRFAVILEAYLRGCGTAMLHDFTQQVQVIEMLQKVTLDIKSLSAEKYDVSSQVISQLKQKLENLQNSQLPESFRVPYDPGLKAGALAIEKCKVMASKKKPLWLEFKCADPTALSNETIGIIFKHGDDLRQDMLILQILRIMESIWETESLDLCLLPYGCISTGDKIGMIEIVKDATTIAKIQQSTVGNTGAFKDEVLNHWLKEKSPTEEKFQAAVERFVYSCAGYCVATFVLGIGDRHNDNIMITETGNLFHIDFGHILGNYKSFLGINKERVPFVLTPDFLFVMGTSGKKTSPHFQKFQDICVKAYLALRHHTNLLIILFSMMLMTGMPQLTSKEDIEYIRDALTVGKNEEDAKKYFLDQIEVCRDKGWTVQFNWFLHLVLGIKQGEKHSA
Phosphatidylinositol 4,5-bisphosphate 3-kinase catalytic subunit alpha isoform, sequence (P42336 whole entry, canonical isoform): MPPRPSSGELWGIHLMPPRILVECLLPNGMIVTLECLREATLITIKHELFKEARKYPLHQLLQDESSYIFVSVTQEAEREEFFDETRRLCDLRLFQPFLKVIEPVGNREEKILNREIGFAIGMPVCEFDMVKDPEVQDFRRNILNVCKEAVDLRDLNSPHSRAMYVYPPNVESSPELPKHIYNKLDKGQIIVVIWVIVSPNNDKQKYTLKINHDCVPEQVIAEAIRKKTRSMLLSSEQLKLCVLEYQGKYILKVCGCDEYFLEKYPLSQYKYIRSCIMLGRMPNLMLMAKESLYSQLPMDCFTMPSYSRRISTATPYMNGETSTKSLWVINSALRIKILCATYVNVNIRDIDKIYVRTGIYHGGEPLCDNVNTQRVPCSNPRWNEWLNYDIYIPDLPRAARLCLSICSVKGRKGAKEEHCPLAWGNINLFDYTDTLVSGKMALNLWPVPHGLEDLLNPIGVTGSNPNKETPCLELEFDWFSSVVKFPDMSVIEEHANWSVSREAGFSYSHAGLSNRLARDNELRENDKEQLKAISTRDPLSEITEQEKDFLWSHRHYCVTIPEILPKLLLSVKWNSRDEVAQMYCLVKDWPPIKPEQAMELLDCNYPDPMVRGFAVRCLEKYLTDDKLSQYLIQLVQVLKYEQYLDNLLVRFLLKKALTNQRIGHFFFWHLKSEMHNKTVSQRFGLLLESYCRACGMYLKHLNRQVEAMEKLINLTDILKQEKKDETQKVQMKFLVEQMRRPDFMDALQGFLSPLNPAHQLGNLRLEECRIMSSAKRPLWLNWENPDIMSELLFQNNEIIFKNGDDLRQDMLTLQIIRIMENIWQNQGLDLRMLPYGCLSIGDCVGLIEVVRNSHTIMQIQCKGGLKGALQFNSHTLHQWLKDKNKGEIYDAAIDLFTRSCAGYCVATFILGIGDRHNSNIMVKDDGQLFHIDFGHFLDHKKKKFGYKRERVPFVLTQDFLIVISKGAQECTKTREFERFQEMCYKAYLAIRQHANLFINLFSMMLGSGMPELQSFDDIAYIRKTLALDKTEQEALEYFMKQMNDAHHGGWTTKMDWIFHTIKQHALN
Phosphatidylinositol 4-kinase beta, sequence (Q9UBF8 whole entry): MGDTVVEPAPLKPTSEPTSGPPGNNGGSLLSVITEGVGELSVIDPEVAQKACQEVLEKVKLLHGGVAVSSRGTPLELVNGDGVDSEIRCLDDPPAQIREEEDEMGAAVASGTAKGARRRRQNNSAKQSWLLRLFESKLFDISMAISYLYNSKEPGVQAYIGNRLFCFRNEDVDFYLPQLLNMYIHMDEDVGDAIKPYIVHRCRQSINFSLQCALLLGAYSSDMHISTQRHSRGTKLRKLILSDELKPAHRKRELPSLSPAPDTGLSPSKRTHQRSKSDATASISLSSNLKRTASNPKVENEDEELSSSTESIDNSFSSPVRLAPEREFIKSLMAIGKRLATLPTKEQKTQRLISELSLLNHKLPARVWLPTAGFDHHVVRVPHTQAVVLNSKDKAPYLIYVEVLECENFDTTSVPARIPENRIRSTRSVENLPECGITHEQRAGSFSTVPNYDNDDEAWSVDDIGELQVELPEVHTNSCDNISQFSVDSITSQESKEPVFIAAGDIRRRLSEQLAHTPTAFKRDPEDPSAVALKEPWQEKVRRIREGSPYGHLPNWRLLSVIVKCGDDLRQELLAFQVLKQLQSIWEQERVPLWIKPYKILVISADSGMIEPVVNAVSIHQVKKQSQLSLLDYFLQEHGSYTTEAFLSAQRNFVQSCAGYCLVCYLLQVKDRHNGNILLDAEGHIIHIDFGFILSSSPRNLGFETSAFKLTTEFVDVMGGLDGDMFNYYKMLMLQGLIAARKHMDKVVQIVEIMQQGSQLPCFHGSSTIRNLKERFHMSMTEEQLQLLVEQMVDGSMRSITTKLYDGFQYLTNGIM

CNC(=O)c1cncc(-c2cnc(Cl)c(NS(=O)(=O)c3ccccc3)c2)c1
pEC50 (Plasmodium falciparum [1]): 7.55
pIC50 [2]: 6.72
pIC50 [3]: 6.49
pIC50 [4]: < 5.00
Ratio IC50 [5]: 100
pEC50 (Plasmodium falciparum [6]): 7.99
Ratio EC50 [7]: 2
pIC50 [8]: 6.78
Activity (Plasmodium yoelii [9]): Active
CL/F [10]: 8.33 mL/min/kg
pIC50 [11]: 9.05
Vz [12]: 20.2 L/kg
pEC50 (Plasmodium falciparum [13]): 7.61
clearance [14]: 8.33 mL/min/kg
MRT last [15]: 4.4 h
Cmax [16]: 4340 ng/mL
Activity (Plasmodium yoelii [17]): 100%
Cmax [18]: 718 ng/mL
pEC50 (Plasmodium falciparum [19]): 7.36
AUC(0-inf) [20]: 2380 ng·h/mL
half-life [21]: 3.6 h
pEC50 (Plasmodium falciparum [22]): 7.52
Cmax [23]: 5010 ng/mL
Cmax [24]: 1540 ng/mL
Tmax [25]: 1.2 min
Activity (Plasmodium yoelii [26]): Dose dependent effect
pIC50 [27]: < 5.00
pEC50 (Plasmodium falciparum [28]): 7.63
pIC50 [29]: 6.36
pEC50 (Plasmodium falciparum [30]): 7.62
pIC50 [31]: 6.41
MRT last [32]: 1 h
Ratio IC50 [33]: 100
bioavailability [34]: 89%
AUC(0-inf) [35]: 2170 ng·h/mL
pIC50 [36]: 6.17
AUC(0-inf) [37]: 292 ng·h/mL
clearance [38]: 51.7 mL/min/kg
bioavailability [39]: 80%
Vd [40]: 2.6 L/kg
Ratio IC50 [41]: 400
Activity (Plasmodium berghei): 100%
Ratio IC50 [42]: 400
pEC50 (Plasmodium falciparum [43]): 7.32
